Results published in ChEMBL document CHEMBL3352305, “Podoverine A--a novel microtubule destabilizing natural product from the Podophyllum species” (Bioorg Med Chem, 2014).
Calls of active or inactive are those of the source. The rule behind the calls is not given here.

Key:
[1] = test system: HeLa; assay: Mitotic arrest in human HeLa cells assessed as structure at 3 uM for 60 mins and measured after 20 hrs of washout and applied 3 uM after washout by FITC staining; format: functional, cell-based
[2] = test system: HeLa; assay: Cell cycle arrest in human HeLa cells assessed as <2N stage DNA at 1 uM for 20 hrs by PI staining/FACS analysis (reference value: 2.19 no unit); format: functional
[3] = test system: MCF7; assay: Cell cycle arrest in human MCF7 cells assessed as 4N stage DNA at 1 uM for 20 hrs by PI staining/FACS analysis (Rvb =40.8 no unit); format: functional
[4] = test system: HeLa; assay: Cell cycle arrest in human HeLa cells assessed as 4N stage DNA at 1 uM for 20 hrs by PI staining/FACS analysis (reference value: 24.8 no unit); format: functional
[5] = test system: MCF7; assay: Cell cycle arrest in human MCF7 cells assessed as >4N stage DNA at 5 uM for 20 hrs by PI staining/FACS analysis (Rvb =23.8 no unit); format: functional
[6] = test system: HeLa; assay: Cell cycle arrest in human HeLa cells assessed as 2N stage DNA at 1 uM for 20 hrs by PI staining/FACS analysis (reference value: 58 no unit); format: functional
[7] = test system: MCF7; assay: Cell cycle arrest in human MCF7 cells assessed as <2N stage DNA at 1 uM for 20 hrs by PI staining/FACS analysis (reference value: 0.39 no unit); format: functional
[8] = test system: MCF7; assay: Cell cycle arrest in human MCF7 cells assessed as >4N stage DNA at 1 uM for 20 hrs by PI staining/FACS analysis (Rvb =23.8 no unit); format: functional
[9] = test system: HeLa; assay: Cell cycle arrest in human HeLa cells assessed as >4N stage DNA at 1 uM for 20 hrs by PI staining/FACS analysis (reference value: 14.2 no unit); format: functional
[10] = target: Tubulin; assay: (§1) Displacement of BODIPY-FL-vinblastine from tubulin (unknown origin); format: protein-complex assay, Homo sapiens
[11] = target: T1, Tubulin (Homo sapiens) (UniProt P68371+Q9H4B7+P0DPH7+P68366+Q13509+Q71U36+P04350+Q3ZCM7+P07437+P68363+Q9BQE3+Q6PEY2+Q13885+Q9BVA1+Q9BUF5); assay: as §1; format: protein-complex assay
[12] = test system: HeLa; assay: Cell cycle arrest in human HeLa cells assessed as 4N stage DNA at 5 uM for 20 hrs by PI staining/FACS analysis (reference value: 24.8 no unit); format: functional
[13] = test system: HeLa; assay: Cytotoxicity against human HeLa cells assessed as inhibition of cell viability after 24 hrs by WST1 assay; format: functional, cell-based
[14] = test system: MCF7; assay: Cell cycle arrest in human MCF7 cells assessed as 4N stage DNA at 5 uM for 20 hrs by PI staining/FACS analysis (Rvb =40.8 no unit); format: functional
[15] = test system: MCF7; assay: Cell cycle arrest in human MCF7 cells assessed as 2N stage DNA at 5 uM for 20 hrs by PI staining/FACS analysis (reference value: 31.6 no unit); format: functional
[16] = test system: HeLa; assay: Mitotic arrest in human HeLa cells assessed as accumulation of round cells with intense stained tubulin and DNA structures at 3 uM for 20 hrs by FITC/TRITC staining; format: functional, cell-based
[17] = test system: HeLa; assay: Cell cycle arrest in human HeLa cells assessed as >4N stage DNA at 5 uM for 20 hrs by PI staining/FACS analysis (reference value: 14.2 no unit); format: functional
[18] = target: Tubulin (Sus scrofa) (UniProt P02554+P02550); assay: Inhibition of porcine brain tubulin polymerization at 50 uM by turbidity assay
[19] = test system: HeLa; assay: Mitotic arrest in human HeLa cells assessed as structure at 3 uM for 60 mins and measured after 20 hrs of washout by FITC staining; format: functional, cell-based
[20] = Cell cycle arrest in human PC3 cells assessed as 2N stage DNA at 1 uM for 20 hrs by PI staining/FACS analysis (reference value: 42 no unit); format: functional, cell-based; conditions: PC-3
[21] = test system: BSC-1; assay: Inhibition of repolymerization of microtubule in cold treated African green monkey BSC1 cells at 5 uM for 20 hrs by DAPI staining; format: cell-based; conditions: Chlorocebus aethiops
[22] = test system: BSC-1; assay: Mitotic arrest in African green monkey BSC1 cells assessed as accumulation of round cells with intense stained tubulin and DNA structures at 3 uM for 20 hrs by FITC/TRITC staining; format: functional, cell-based; conditions: Chlorocebus aethiops
[23] = Cell cycle arrest in human PC3 cells assessed as <2N stage DNA at 5 uM for 20 hrs by PI staining/FACS analysis (reference value: 0.59 no unit); format: functional, cell-based; conditions: PC-3
[24] = target: T1, Tubulin (Homo sapiens); assay: Displacement of colchicine from tubulin (unknown origin) by FITC staining; format: protein-complex assay
[25] = test system: HeLa; assay: Mitotic arrest in human HeLa cells assessed as cells with condensed chromosomes not aligned to metaphase plate at 3 uM for 20 hrs by FITC/TRITC staining; format: functional, cell-based
[26] = test system: HeLa; assay: Mitotic arrest in human HeLa cells assessed as increase in accumulation at G2/M phase at 5 uM for 24 hrs by PI staining/FACS analysis; format: functional, cell-based
[27] = test system: MCF7; assay: Cell cycle arrest in human MCF7 cells assessed as 2N stage DNA at 1 uM for 20 hrs by PI staining/FACS analysis (reference value: 31.6 no unit); format: functional
[28] = test system: HeLa; assay: Mitotic arrest in human HeLa cells assessed as cells devoid of mitotic spindles at 3 uM for 20 hrs by FITC/TRITC staining; format: functional, cell-based
[29] = Cell cycle arrest in human PC3 cells assessed as <2N stage DNA at 1 uM for 20 hrs by PI staining/FACS analysis (reference value: 0.59 no unit); format: functional, cell-based; conditions: PC-3
[30] = test system: MCF7; assay: Cell cycle arrest in human MCF7 cells assessed as <2N stage DNA at 5 uM for 20 hrs by PI staining/FACS analysis (reference value: 0.39 no unit); format: functional
[31] = Cell cycle arrest in human PC3 cells assessed as 4N stage DNA at 5 uM for 20 hrs by PI staining/FACS analysis (Rvb =34.4 no unit); format: functional, cell-based; conditions: PC-3
[32] = Cell cycle arrest in human PC3 cells assessed as 2N stage DNA at 5 uM for 20 hrs by PI staining/FACS analysis (reference value: 42 no unit); format: functional, cell-based; conditions: PC-3
[33] = test system: HeLa; assay: Cell cycle arrest in human HeLa cells assessed as 2N stage DNA at 5 uM for 20 hrs by PI staining/FACS analysis (reference value: 58 no unit); format: functional
[34] = Cell cycle arrest in human PC3 cells assessed as >4N stage DNA at 1 uM for 20 hrs by PI staining/FACS analysis (Rvb =23 no unit); format: functional, cell-based; conditions: PC-3
[35] = Cell cycle arrest in human PC3 cells assessed as >4N stage DNA at 5 uM for 20 hrs by PI staining/FACS analysis (Rvb =23 no unit); format: functional, cell-based; conditions: PC-3
[36] = Cell cycle arrest in human PC3 cells assessed as 4N stage DNA at 1 uM for 20 hrs by PI staining/FACS analysis (Rvb =34.4 no unit); format: functional, cell-based; conditions: PC-3
[37] = test system: HeLa; assay: Cell cycle arrest in human HeLa cells assessed as <2N stage DNA at 5 uM for 20 hrs by PI staining/FACS analysis (reference value: 2.19 no unit); format: functional
[38] = test system: HeLa; assay: Mitotic arrest in human HeLa cells assessed as increase in accumulation at G2/M phase at 1 uM for 24 hrs by PI staining/FACS analysis; format: functional, cell-based

Sequence of Tubulin (Sus scrofa) (P02550 whole entry, looked up): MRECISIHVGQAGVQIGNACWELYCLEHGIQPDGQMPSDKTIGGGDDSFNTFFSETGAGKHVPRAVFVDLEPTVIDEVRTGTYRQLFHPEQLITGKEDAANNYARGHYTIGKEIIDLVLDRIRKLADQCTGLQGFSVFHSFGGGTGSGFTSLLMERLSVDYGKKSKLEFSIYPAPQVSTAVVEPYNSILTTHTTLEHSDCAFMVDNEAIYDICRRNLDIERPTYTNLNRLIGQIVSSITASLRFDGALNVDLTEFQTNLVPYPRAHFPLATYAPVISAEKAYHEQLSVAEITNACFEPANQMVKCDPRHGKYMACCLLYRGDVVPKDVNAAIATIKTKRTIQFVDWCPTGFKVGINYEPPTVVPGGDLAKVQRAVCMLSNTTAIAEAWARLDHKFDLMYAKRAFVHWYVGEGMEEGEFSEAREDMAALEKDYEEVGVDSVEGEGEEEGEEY
Sequence of Tubulin (Sus scrofa) (P02554 whole entry, looked up): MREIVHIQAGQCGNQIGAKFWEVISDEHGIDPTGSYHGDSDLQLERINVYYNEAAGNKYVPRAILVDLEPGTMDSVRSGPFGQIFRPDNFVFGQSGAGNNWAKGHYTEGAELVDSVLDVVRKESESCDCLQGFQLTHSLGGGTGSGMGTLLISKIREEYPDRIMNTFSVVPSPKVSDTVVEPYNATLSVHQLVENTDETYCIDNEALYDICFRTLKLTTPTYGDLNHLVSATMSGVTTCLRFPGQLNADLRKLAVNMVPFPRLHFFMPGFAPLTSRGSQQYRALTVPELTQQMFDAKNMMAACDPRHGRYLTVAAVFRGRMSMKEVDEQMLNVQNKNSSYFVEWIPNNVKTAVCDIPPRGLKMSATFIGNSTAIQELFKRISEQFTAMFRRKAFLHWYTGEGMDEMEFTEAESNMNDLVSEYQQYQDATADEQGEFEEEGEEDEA

## COc1c(-c2ccc(O)c(O)c2CC=C(C)C)oc2cc(O)cc(O)c2c1=O
[1]
  Activity: Active
[2]
  Flu intensity: 5.6
[3]
  Flu intensity: 36.3
[4]
  Flu intensity: 40.2
[5]
  Flu intensity: 27
[6]
  Flu intensity: 40.4
[7]
  Flu intensity: 1.07
[8]
  Flu intensity: 29.6
[9]
  Flu intensity: 13.8
[10]
  EC50: 14.7 µM
[11]
  inhibition: Dose-dependent effect
[12]
  Flu intensity: 58.2
[13]
  IC50: 0.79 µM
  inhibition: Dose-dependent effect
[14]
  Flu intensity: 61.5
[15]
  Flu intensity: 9.57
[16]
  Activity: Active
[17]
  Flu intensity: 21.8
[18]
  inhibition: Active
[19]
  Activity: inactive
[20]
  Flu intensity: 27.6
[21]
  inhibition: Active
[22]
  Activity: Active
[23]
  Flu intensity: 12.6
[24]
  Activity: inactive
[25]
  Activity: Active
[26]
  Activity: Active
[27]
  Flu intensity: 32
[28]
  Activity: Active
[29]
  Flu intensity: 2.23
[30]
  Flu intensity: 2
[31]
  Flu intensity: 47.5
[32]
  Flu intensity: 9.24
[33]
  Flu intensity: 9.6
[34]
  Flu intensity: 26.5
[35]
  Flu intensity: 30.8
[36]
  Flu intensity: 42
[37]
  Flu intensity: 9.84

## COC(=O)Nc1nc2cc(C(=O)c3cccs3)ccc2[nH]1 [NOCODAZOLE]
[2]
  Flu intensity: 9.75
[3]
  Flu intensity: 57.5
[4]
  Flu intensity: 64.7
[6]
  Flu intensity: 8.61
[7]
  Flu intensity: 0.72
[8]
  Flu intensity: 30.7
[9]
  Flu intensity: 16.9
[20]
  Flu intensity: 7.64
[38]
  Activity: Active
[27]
  Flu intensity: 9.16
[29]
  Flu intensity: 10.7
[34]
  Flu intensity: 29.4
[36]
  Flu intensity: 51.7
